Test results taken from US8901118B2, “Compounds and methods for kinase modulation, and indications therefor” (Plexxikon Inc., priority 2010, dated 2014).

Experiments:
CYP2C19 = CYP2C19 (Homo sapiens, UniProt P33261); test: CYP2C19 inhibition (fluorescent substrate CEC); type: in vitro ADME; conditions: read-out: Cyp IC50 2C19
Method in brief: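 Test compound titrated 1:1 across ten concentrations; metabolite fluorescence measured after 37 °C incubation of 15 min (CYP1A2), 30 min (CYP2C19, CYP2D6) or 45 min (CYP2C9). IC50 from signal versus concentration.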

BCR-NTRK2 BaF3 cells = target: T1, BCR-NTRK2 BaF3 cells (Homo sapiens, UniProt Q16620); test: BaF3 BCR-NTRK2 cell proliferation assay (ATPlite); type: cell-based; conditions: read-out: Inhibition of Cell Proliferation IC50, BCR/BaF3 TrkB
T1 construct: fused on or other part: P11274 (Breakpoint cluster region protein)
T1 sequence (Q16620 538-807): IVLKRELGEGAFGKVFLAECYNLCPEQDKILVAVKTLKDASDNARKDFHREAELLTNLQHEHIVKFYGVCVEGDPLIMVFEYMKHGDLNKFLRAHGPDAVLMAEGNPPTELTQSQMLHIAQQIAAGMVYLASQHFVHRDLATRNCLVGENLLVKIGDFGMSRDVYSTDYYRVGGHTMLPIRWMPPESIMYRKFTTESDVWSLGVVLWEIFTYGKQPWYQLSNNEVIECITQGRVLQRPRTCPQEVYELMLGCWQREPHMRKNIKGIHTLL
Method in brief: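 Proliferation was run for 3 days at 37 °C against 8-point 1:3 titrations with 10 μM as the top final concentration. Seeding was 10,000 cells/well for BaF3 BCR-fusion lines, grown without IL-3, and 25,000 cells/well for MV-4-11. IC50 was derived from ATPlite luminescence read as cell number.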

Chain of CYP2C19 (P33261 whole entry): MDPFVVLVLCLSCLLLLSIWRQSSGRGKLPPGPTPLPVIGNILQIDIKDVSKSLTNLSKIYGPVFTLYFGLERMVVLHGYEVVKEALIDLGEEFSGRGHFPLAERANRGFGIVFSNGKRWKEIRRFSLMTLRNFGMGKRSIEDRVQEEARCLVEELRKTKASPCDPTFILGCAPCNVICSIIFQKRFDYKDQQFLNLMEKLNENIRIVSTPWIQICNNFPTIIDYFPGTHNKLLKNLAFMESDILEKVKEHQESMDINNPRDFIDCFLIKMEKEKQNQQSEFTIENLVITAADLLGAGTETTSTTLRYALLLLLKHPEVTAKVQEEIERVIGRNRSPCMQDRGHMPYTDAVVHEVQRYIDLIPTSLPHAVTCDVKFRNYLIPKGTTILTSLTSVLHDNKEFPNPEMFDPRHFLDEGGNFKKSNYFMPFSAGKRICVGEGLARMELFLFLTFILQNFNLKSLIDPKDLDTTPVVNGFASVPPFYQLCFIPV

| Compound | IC50 (CYP2C19) | IC50 (BCR-NTRK2 BaF3 cells) |
| --- | --- | --- |
| CCOc1ncnc2[nH]cc(Cc3ccc(Nc4cnn(CC)c4)nc3F)c12 [Compound P-4012, [5-(4-Ethoxy-7H-pyrrolo[2,3-d]pyrimidin-5-ylmethyl)-6-fluoro-pyridin-2-yl]-(1-ethyl-1H-pyrazol-4-yl)-amine] | > 10 µM | < 0.1 µM |
| Cc1cnc2[nH]cc(C(=O)c3ccc(Nc4ccc(C)nc4)nc3F)c2c1 [Compound P-3043, [2-Fluoro-6-(6-methyl-pyridin-3-ylamino)-pyridin-3-yl]-(5-methyl-1H-pyrrolo[2,3-b]pyridin-3-yl)-methanone] | > 10 µM | < 0.1 µM |
| COc1ccc(Nc2ccc(Cc3c[nH]c4ncnc(C5CC5)c34)c(F)n2)cn1 [Compound P-4023, [5-(4-cyclopropyl-7H-pyrrolo[2,3-d]pyrimidin-5-ylmethyl)-6-fluoro-pyridin-2-yl]-(6-methoxy-pyridin-3-yl)-amine] | < 5 µM | < 0.1 µM |
| CCn1cc(Nc2ccc(Cc3c[nH]c4ncnc(C)c34)c(F)n2)cn1 [Compound P-4013, (1-Ethyl-1H-pyrazol-4-yl)-[6-fluoro-5-(4-methyl-7H-pyrrolo[2,3-d]pyrimidin-5-ylmethyl)-pyridin-2-yl]-amine] | > 10 µM | < 1 µM |
| Fc1nc(NC2CCC(F)(F)CC2)ccc1Cc1c[nH]c2ncnc(NCC(F)(F)F)c12 [Compound P-4128, 5-[[6-[(4,4-difluorocyclohexyl)amino]-2-fluoro-3-pyridyl]methyl]-N-(2,2,2-trifluoroethyl)-7H-pyrrolo[2,3-d]pyrimidin-4-amine] | > 10 µM | < 0.1 µM |
| COCCOc1ncnc2[nH]cc(Cc3ccc(Nc4ccc(OC)nc4)nc3F)c12 [Compound P-4019, {6-Fluoro-5-[4-(2-methoxy-ethoxy)-7H-pyrrolo[2,3-d]pyrimidin-5-ylmethyl]-pyridin-2-yl}-(6-methoxy-pyridin-3-yl)-amine] | 5 to 10 µM | < 0.1 µM |
| COc1ncnc2[nH]cc(Cc3ccc(Nc4ccc(Cl)nc4)nc3F)c12 [Compound P-4003, (6-Chloro-pyridin-3-yl)-[6-fluoro-5-(4-methoxy-7H-pyrrolo[2,3-d]pyrimidin-5-ylmethyl)-pyridin-2-yl]-amine] | > 10 µM | < 1 µM |
| CCOc1ncnc2[nH]cc(Cc3ccc(Nc4ccc(C)nc4)nc3F)c12 [Compound P-4017, [5-(4-Ethoxy-7H-pyrrolo[2,3-d]pyrimidin-5-ylmethyl)-6-fluoro-pyridin-2-yl]-(6-methyl-pyridin-3-yl)-amine] | > 10 µM | < 1 µM |
| Cc1ccc(Nc2ccc(C(=O)c3c[nH]c4ncc(Cl)cc34)c(F)n2)cn1 [Compound P-3044, (5-Chloro-1H-pyrrolo[2,3-b]pyridin-3-yl)-[2-fluoro-6-(6-methyl-pyridin-3-ylamino)-pyridin-3-yl]-methanone] | > 10 µM | < 0.1 µM |
| CCOc1ccc(Nc2ccc(C(=O)c3c[nH]c4ncnc(OC)c34)c(F)n2)cn1 [Compound P-4024, [6-(6-Ethoxy-pyridin-3-ylamino)-2-fluoro-pyridin-3-yl]-(4-methoxy-7H-pyrrolo[2,3-d]pyrimidin-5-yl)-methanone] | > 10 µM | < 0.1 µM |
| FC1(F)CCC(Nc2ncc(Cc3c[nH]c4ncc(Cl)cc34)cn2)CC1 [Compound P-3004] | 5 to 10 µM | < 10 µM |
| CCOc1ccc(Nc2ccc(Cc3c[nH]c4ncnc(OCCOC)c34)c(F)n2)cn1 [Compound P-4008, (6-Ethoxy-pyridin-3-yl)-{6-fluoro-5-[4-(2-methoxy-ethoxy)-7H-pyrrolo[2,3-d]pyrimidin-5-ylmethyl]-pyridin-2-yl}-amine] | > 10 µM | < 0.1 µM |
| CCOc1ncnc2[nH]cc(Cc3ccc(Nc4ccc(OC)nc4)nc3F)c12 [Compound P-4018, [5-(4-Ethoxy-7H-pyrrolo[2,3-d]pyrimidin-5-ylmethyl)-6-fluoro-pyridin-2-yl]-(6-methoxy-pyridin-3-yl)-amine] | < 5 µM | < 0.1 µM |
| CCc1ccc(Nc2ccc(Cc3c[nH]c4ncnc(C)c34)c(F)n2)cn1 [Compound P-4009, (6-Ethyl-pyridin-3-yl)-[6-fluoro-5-(4-methyl-7H-pyrrolo[2,3-d]pyrimidin-5-ylmethyl)-pyridin-2-yl]-amine] | 5 to 10 µM | < 0.01 µM |
| CCc1ccc(Nc2ccc(Cc3c[nH]c4ncnc(OCCOC)c34)c(F)n2)cn1 [Compound P-4016, (6-Ethyl-pyridin-3-yl)-{6-fluoro-5-[4-(2-methoxy-ethoxy)-7H-pyrrolo[2,3-d]pyrimidin-5-ylmethyl]-pyridin-2-yl}-amine] | > 10 µM | < 0.01 µM |
| COc1ccc(Nc2ccc(C(=O)c3c[nH]c4ncc(C)cc34)c(F)n2)cn1 [Compound P-3040, [2-Fluoro-6-(6-methoxy-pyridin-3-ylamino)-pyridin-3-yl]-(5-methyl-1H-pyrrolo[2,3-b]pyridin-3-yl)-methanone] | > 10 µM | < 0.01 µM |
| CCc1ccc(Nc2ccc(Cc3c[nH]c4ncnc(C5CC5)c34)c(F)n2)cn1 [Compound P-4028, [5-(4-Cyclopropyl-7H-pyrrolo[2,3-d]pyrimidin-5-ylmethyl)-6-fluoro-pyridin-2-yl]-(6-ethyl-pyridin-3-yl)-amine] | 5 to 10 µM | < 0.01 µM |
| CCOc1ncnc2[nH]cc(C(=O)c3ccc(Nc4ccc(OC)nc4)nc3F)c12 [Compound P-4025, (4-Ethoxy-7H-pyrrolo[2,3-d]pyrimidin-5-yl)-[2-fluoro-6-(6-methoxy-pyridin-3-ylamino)-pyridin-3-yl]-methanone] | 5 to 10 µM | < 0.1 µM |
| COc1ccc(Nc2ccc(Cc3c[nH]c4ncnc(C)c34)c(F)n2)cn1 [Compound P-4002, [6-Fluoro-5-(4-methyl-7H-pyrrolo[2,3-d]pyrimidin-5-ylmethyl)-pyridin-2-yl]-(6-methoxy-pyridin-3-yl)-amine] | > 10 µM | < 1 µM |
| CCn1cc(Nc2ccc(Cc3c[nH]c4ncnc(OCCOC)c34)c(F)n2)cn1 [Compound P-4014, (1-Ethyl-1H-pyrazol-4-yl)-{6-fluoro-5-[4-(2-methoxy-ethoxy)-7H-pyrrolo[2,3-d]pyrimidin-5-ylmethyl]-pyridin-2-yl}-amine] | > 10 µM | < 1 µM |
| CCc1ccc(Nc2ccc(C(=O)c3c[nH]c4ncnc(C5CC5)c34)c(F)n2)cn1 [Compound P-4029, (4-Cyclopropyl-7H-pyrrolo[2,3-d]pyrimidin-5-yl)-[6-(6-ethyl-pyridin-3-ylamino)-2-fluoro-pyridin-3-yl]-methanone] | > 10 µM | < 0.01 µM |
